Assay results as given in patent US20260256789A1, “METHODS FOR TREATMENT OF CANCER” (Frontier Medicines Corporation, priority 2022, published 2026).

Each compound was assayed against T1, KRAS G12C (GMPPNP-loaded) and cRAF Ras-binding domain (Homo sapiens, UniProt P01116, C118S/C51S/C80L/G12C) (assay: Inhibition of KRAS G12C and cRAF binding (AlphaScreen)). Settings: KRAS G12C preloaded with GTP analogue GMPPNP, 2 hours preincubation.
T1 construct: truncated version comprising amino acids 1-169
From the text: The ability of compounds of Formula (A), Formula (B) and Formula (C), and pharmaceutically acceptable salts and/or isotopologues thereof, to inhibit activity of the GTP-bound form of KRAS G12C can be tested using methods such as the in vitro assay described in Example 179 below. Example 179 describes determining, for various compounds, the half-maximal inhibition (IC50) of KRAS G12C loaded with GTP analogue GMPPNP from binding to cRaf, as the Ras-binding domain (RBD). Example 180 describes determining, for various compounds, the half-maximal inhibition (IC50) of KRAS G12C loaded with GTP analogue GMPPNP from binding to PI3Kα, as the Ras-binding domain (RBD). Example 181 describes testing compounds for the ability to inhibit cell viability in MCF10A G12C/A59G mutant, which abrogates GTPase activity, thus preventing hydrolysis of GTP to GDP.
The AlphaScreen technology was used to determine IC50s for compound inhibition of KRAS G12C (present as the Cys-light (C51S, C80L and C118S), truncated version comprising amino acids 1-169) and cRAF interaction. Compounds were diluted in 100% DMSO and each compound concentration was spotted at 200 nl/well onto low volume, white 384 well plates. The KRAS G12C contained a biotin-AviTag and the cRaf, as Ras-binding domain (amino acids 50-131, RBD), was GST-tagged. KRAS G12C was preloaded with the GTP analogue Guanosine 5′-[β,γ-imido]triphosphate (GMPPNP). The KRAS G12C was diluted in 25 mM Hepes, pH 7.4, 150 mM NaCl, 5 mM MgCl2, 0.01% TritonX-100 and 10 μM GMPPNP and added at 10 ul/well to compound-spotted plates resulting in a DMSO concentration of 2%. Plates were incubated for 2 hours. A mixture of RBD and the AlphaScreen streptavidin donor and glutathione acceptor beads diluted in 25 mM Hepes, pH 7.4, 150 mM NaCl, 5 mM MgCl2, 0.01% TritonX-100 and 2% DMSO was then added at 10 ul/well and incubated for 60-90 minutes before the samples were read for emission at 570 nm after excitation of the donor beads at 680 nm. All incubations were performed at room temperature. The final top compound concentration was 50 μM with 1:3 titrations for 10-point dose response curves. Final assay conditions were 0.5 nM KRAS G12C, 0.75 nM RBD and 5 μg/ml each of AlphaScreen donor and acceptor beads. IC50s were determined using nonlinear regression fit of [inhibitor] vs. response (4 parameters). […]

T1 sequence (P01116 1-169 isoform P01116-2 G12C/C51S/C80L/C118S): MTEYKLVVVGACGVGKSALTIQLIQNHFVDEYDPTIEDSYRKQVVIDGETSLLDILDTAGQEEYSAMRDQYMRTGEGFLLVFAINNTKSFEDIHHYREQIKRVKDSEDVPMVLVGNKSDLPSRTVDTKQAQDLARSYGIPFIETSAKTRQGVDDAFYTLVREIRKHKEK

Row | Structure (SMILES) | IC50 [nM]
1 | Cc1cc(N)nc(-c2ncc3c(N(C)[C@@H]4CCN(C(=O)/C=C/C5CCN5C)C4)nc(OC[C@@]45CCCN4C[C@H](F)C5)nc3c2F)c1C(F)(F)F (stereo in doubt) [Example 134] | < 10
2 | Cc1nsc(/C=C/C(=O)N2CC(CN(C)c3nc(OC[C@@]45CCCN4C[C@H](F)C5)nc4c(F)c(-c5nc(N)cc(C)c5C(F)(F)F)ncc34)C2)n1 [Example 4, (E)-1-(3-(((7-(6-amino-4-methyl-3-(trifluoromethyl)pyridin-2-yl)-8-fluoro-2-(((2R,7aS)-2-fluorohexahydro-1H-pyrrolizin-7a-yl)methoxy)pyrido[4,3-d]pyrimidin-4-yl)(methyl)amino)methyl)azetidin-1-yl)-3-(3-methyl-1,2,4-thiadiazol-5-yl)prop-2-en-1-one] | 10 to 100
3 | CN(c1nc(OC[C@@]23CCCN2C[C@H](F)C3)nc2c(F)c(-c3nc(N)cc4cccc(F)c34)ncc12)[C@@H]1CCN(C(=O)/C=C/c2nc(C(C)(C)O)no2)C1 [Example 142] | < 10
4 | C=CC(=O)N1CC[C@@H](N(C)c2nc(OC[C@@]34CCCN3C[C@H](F)C4)nc3c2C[C@H](C)[C@@H](c2nc(N)cc(C)c2C(F)(F)F)C3)C1 [Example 145, 1-((R)-3-(((6S,7S)-7-(6-amino-4-methyl-3-(trifluoromethyl)pyridin-2-yl)-2-(((2R,7aS)-2-fluorotetrahydro-1H-pyrrolizin-7a(5H)-yl)methoxy)-6-methyl-5,6,7,8-tetrahydroquinazolin-4-yl)(methyl)amino)pyrrolidin-1-yl)prop-2-en-1-one] | ≥ 500
5 | C=CC(=O)N1CC[C@@H](N(C)c2nc(OC[C@@]34CCCN3C[C@H](F)C4)nc3c(F)c(-c4ccc(F)c(F)c4C4CC4)ncc23)C1 [Example 202] | ≥ 500
6 | Cc1nccc(/C=C/C(=O)N2CC(CN(C)c3nc(OC[C@@]45CCCN4C[C@H](F)C5)nc4c(F)c(-c5nc(N)cc6cccc(Cl)c56)ncc34)C2)n1 [Example 156, (E)-1-(3-(((7-(3-amino-8-chloroisoquinolin-1-yl)-8-fluoro-2-(((2R,7aS)-2-fluorotetrahydro-1H-pyrrolizin-7a(5H)-yl)methoxy)pyrido[4,3-d]pyrimidin-4-yl)(methyl)amino)methyl)azetidin-1-yl)-3-(2-methylpyrimidin-4-yl)prop-2-en-1-one] | 10 to 100
7 | CN1CC[C@@H]1/C=C/C(=O)N1CC[C@@H](N(C)c2nc(OC[C@@]34CCCN3C[C@H](F)C4)nc3c(F)c(-c4nc(N)cc5cccc(F)c45)ncc23)C1 (single isomer, unassigned) [Example 7] | < 10
8 | C=CC(=O)N1CC[C@H](O)[C@@H](N(C)c2nc(OC[C@@]34CCCN3C[C@H](F)C4)nc3c(F)c(-c4cccc(Cl)c4C4CC4)ncc23)C1 [Example 237] | ≥ 500
9 | CN(c1nc(OC[C@@]23CCCN2C[C@H](F)C3)nc2c(F)c(-c3cccc(Cl)c3C3CC3)ncc12)[C@@H]1CCN(C(=O)C#C[C@@]2(C)CCCN2)C1 [Example 215] | < 10
10 | CN(C)CC#CC(=O)N1CC[C@@H](N(C)c2nc(OC[C@@]34CCCN3C[C@H](F)C4)nc3c(F)c(-c4nc(N)cc5cccc(F)c45)ncc23)C1 [Example 106] | < 10
11 | C=CC(=O)N1CC[C@@H](N(C)c2nc(OC[C@@]34CCCN3C[C@H](F)C4)nc3c(F)c(-c4nc(N)cc(C)c4C)ncc23)C1 [Example 171] | 100 to 500
12 | CN(c1nc(OC[C@@]23CCCN2C[C@H](F)C3)nc2c(F)c(-c3nc(N)cc4cccc(F)c34)ncc12)[C@@H]1CCN(C(=O)/C=C/c2nc(C(C)(F)F)no2)C1 [Example 92] | < 10
13 | C=CC(=O)N1CC(CN(C)c2nc(OCC34CCCN3CCC4)nc3c2CC(C)C(c2nc(N)cc(C)c2C(F)(F)F)C3)C1 (stereo not drawn) [Example 207] | ≥ 500
14 | CN1CC[C@@H]1/C=C/C(=O)N1CC[C@@H](N(C)c2nc(OC[C@@]34CCCN3C[C@H](F)C4)nc3c(F)c(-c4cc(O)cc(F)c4C4CC4)ncc23)C1 [Example 180] | < 10
15 | C=CC(=O)N1CC[C@@H](N(C)c2nc(OCC34CCCN3CCC4)nc3c(F)c(-c4nc(N)cc(C)c4C(F)(F)F)ncc23)C1 [Example 79, (R)-1-(3-((7-(6-amino-4-methyl-3-(trifluoromethyl)pyridin-2-yl)-8-fluoro-2-((tetrahydro-1H-pyrrolizin-7a(5H)-yl)methoxy)pyrido[4,3-d]pyrimidin-4-yl)(methyl)amino)pyrrolidin-1-yl)prop-2-en-1-one] | 10 to 100
16 | CC(C)c1noc(/C=C/C(=O)N2CC(CN(C)c3nc(OC[C@@]45CCCN4C[C@H](F)C5)nc4c(F)c(-c5nc(N)cc6cccc(Cl)c56)ncc34)C2)n1 [Example 118] | 100 to 500
17 | C=CC(=O)N1CC[C@@H](N(C)c2nc(OC[C@@]34CCCN3C[C@H](F)C4)nc3c(F)c(-c4cncc5ccc(F)c(F)c45)ncc23)C1 [Example 190] | ≥ 500
18 | CC(C)c1noc(/C=C/C(=O)N2CC[C@@H](N(C)c3nc(OC[C@@]45CCCN4C[C@H](F)C5)nc4c(F)c(-c5nc(N)cc6cccc(Cl)c56)ncc34)C2)n1 [Example 60, (E)-1-((R)-3-((7-(3-amino-8-chloroisoquinolin-1-yl)-8-fluoro-2-(((2R,7aS)-2-fluorohexahydro-1H-pyrrolizin-7a-yl)methoxy)pyrido[4,3-d]pyrimidin-4-yl)(methyl)amino)pyrrolidin-1-yl)-3-(3-isopropyl-1,2,4-oxadiazol-5-yl)prop-2-en-1-one] | < 10
19 | CN1CC[C@@H]1/C=C/C(=O)N1CC[C@@H](N(C)c2nc(OC[C@@]34CCCN3C[C@H](F)C4)nc3c(F)c(-c4cccc(Cl)c4C(F)(F)F)ncc23)C1 [Example 242] | 10 to 100
20 | C=CC(=O)N1CC[C@@H](N(C)c2nc(OC[C@@]34CCCN3C[C@H](F)C4)nc3c(F)c(-c4cc(O)cc5nccnc45)ncc23)C1 [Example 192] | 100 to 500
21 | Cc1cc(N)nc(-c2ncc3c(N(C)CC4CN(C(=O)/C=C/c5nc(C(C)C)no5)C4)nc(OC[C@@]45CCCN4C[C@H](F)C5)nc3c2F)c1C(F)(F)F [Example 51, (E)-1-(3-(((7-(6-amino-4-methyl-3-(trifluoromethyl)pyridin-2-yl)-8-fluoro-2-(((2R,7aS)-2-fluorohexahydro-1H-pyrrolizin-7a-yl)methoxy)pyrido[4,3-d]pyrimidin-4-yl)(methyl)amino)methyl)azetidin-1-yl)-3-(3-isopropyl-1,2,4-oxadiazol-5-yl)prop-2-en-1-one] | < 10
22 | C=CC(=O)N1CC[C@@H](N(C)c2nc(OC[C@@]34CCCN3C[C@H](F)C4)nc3c(F)c(-c4cnn5cccc(F)c45)ncc23)C1 [Example 212] | ≥ 500
23 | C=CC(=O)N1CC[C@@H](N(C)c2nc(OCC34CCCN3CCC4)nc3c2C[C@H](C)[C@@H](c2nc(N)cc(C)c2C(F)(F)F)C3)C1 (single isomer, unassigned) [Example 18] | 100 to 500
24 | Cc1noc(/C=C/C(=O)N2CC[C@@H](N(C)c3nc(OC[C@@]45CCCN4C[C@H](F)C5)nc4c3CC(C)C(c3nc(N)cc(C)c3C(F)(F)F)C4)C2)n1 (stereo partly drawn) [Example 65, (E)-1-((3R)-3-((7-(6-amino-4-methyl-3-(trifluoromethyl)pyridin-2-yl)-2-(((2R,7aS)-2-fluorohexahydro-1H-pyrrolizin-7a-yl)methoxy)-6-methyl-5,6,7,8-tetrahydroquinazolin-4-yl)(methyl)amino)pyrrolidin-1-yl)-3-(3-methyl-1,2,4-oxadiazol-5-yl)prop-2-en-1-one] | < 10
25 | Cc1cc(N)nc(-c2ncc3c(N(C)[C@@H]4CCN(C(=O)/C=C/CN(C)C)C4)nc(OC[C@@]45CCCN4C[C@H](F)C5)nc3c2F)c1C(F)(F)F [Example 62, (E)-1-((R)-3-((7-(6-amino-4-methyl-3-(trifluoromethyl)pyridin-2-yl)-8-fluoro-2-(((2R,7aS)-2-fluorohexahydro-1H-pyrrolizin-7a-yl)methoxy)pyrido[4,3-d]pyrimidin-4-yl)(methyl)amino)pyrrolidin-1-yl)-4-(dimethylamino)but-2-en-1-one] | 10 to 100
26 | C=CC(=O)N1CC[C@@H](N(C)c2nc(OC[C@@]34CCCN3C[C@H](F)C4)nc3c(F)c(-c4cccc(OC)c4C4CC4)ncc23)C1 [Example 189] | ≥ 500
27 | C=CC(=O)N1CC[C@@H](N(C)c2nc(OC[C@@]34CCCN3C[C@H](F)C4)nc3c(F)c(-c4cc(O)ccc4C4CC4)ncc23)C1 [Example 31, 1-((R)-3-((7-(2-cyclopropyl-5-hydroxyphenyl)-8-fluoro-2-(((2R,7aS)-2-fluorotetrahydro-1H-pyrrolizin-7a(5H)-yl)methoxy)pyrido[4,3-d]pyrimidin-4-yl)(methyl)amino)pyrrolidin-1-yl)prop-2-en-1-one] | 10 to 100
